Assay results from patent US20190233884A1 (University of Southern California, priority 2016, published 2019).

Tested on: patients with refractory metastatic colorectal cancer (mCRC)
Experiment: PFS, OS and disease control in the training (evaluation) cohort of refractory mCRC patients receiving TAS-102 (n=52, Japan), by baseline characteristics, SNP genotype and toxicity
Type: in vivo, human
Conditions: for OS (median) / PFS (median): evaluation cohort (JPN TAS-102); for Disease Control CR/PR/SD, patients n (%) / Median OS (95% CI) / Median PFS (95% CI) / PD, patients n (%) / HR OS (95% CI) / HR PFS (95% CI) / Disease Control Rate SD, patients n (%): evaluation cohort
Method: All patients underwent the treatment in salvage-line setting. […]
Genomic DNA was extracted from peripheral whole blood in patients of all cohorts using the QIAmp Kit (Qiagen, Valencia, Calif., USA) according to the manufacturer's protocol (www.qiagen.com). The candidate SNPs were genotyped using PCR-based direct DNA sequence analysis by ABI 3100A Capillary Genetic Analyzer and Sequencing Scanner v1.0 (Applied Biosystems). Amplification of extracted DNA was carried out using both forward and reverse primers for each gene polymorphism as shown in Table 1. […] The investigators analyzing SNPs were blinded to the clinical data of the study patients.
The primary endpoint in this study was progression-free survival (PFS), and the secondary endpoints were overall survival (OS) and disease control rate (DCR). PFS was calculated from the date of starting treatment to the first observation of disease progression or death from any cause. If a patient had no disease progression or death, PFS was censored at the date of last follow up. OS was calculated from the date of starting treatment until the date of death from any cause or the date of the last follow-up, at which point OS was censored. The disease control rate (DCR) was defined as the proportion of patients who achieved a stable disease (SD) or […] according to RECISTv1.1. Chi-square test was used to examine the difference in baseline patient characteristics among the three cohorts. Allelic distribution of all SNPs by ethnicity for deviation from Hardy-Weinberg equilibrium and the allelic frequencies of SNPs were tested using the Chi-square tests with one degree of freedom. The associations between candidate SNPs and disease control, and toxicities were examined using contingency tables and Fisher's exact test. The associations of SNPs with PFS and OS were analysed using Kaplan-Meier curves and the log-rank test. Because the true mode of inheritance of candidate SNPs was not established yet, a codominant or dominant genetic model if appropriate was considered.
All patients underwent the treatment in salvage-line setting. […] In all patients, adverse events were graded according to the Common Terminology Criteria for Adverse Events, version 4.0. […]
Genomic DNA was extracted from peripheral whole blood in patients of all cohorts using the QIAmp Kit (Qiagen, Valencia, Calif., USA) according to the manufacturer's protocol (www.qiagen.com). The candidate SNPs were tested using PCR-based direct DNA sequence analysis by ABI 3100A Capillary Genetic Analyzer and Sequencing Scanner v1.0 (Applied Biosystems). […] The investigators analyzing SNPs were blinded to the clinical data.
The primary endpoint in this study was progression-free survival (PFS), and the secondary endpoints were overall survival (OS) and disease control rate (DCR).

[1] = PCNA rs25406 G/A vs G/G, univariate
[2] = Pin1 rs2233678 G/C vs G/G, multivariable
[3] = Pin1 rs2233678 G/C vs G/G, univariate
[4] = Pin1 rs2233679 Any T vs C/C, multivariable
[5] = Pin1 rs2233679 Any T vs C/C, univariate
[6] = Pin1 rs2233679 C/T vs C/C, multivariable
[7] = Pin1 rs2233679 C/T vs C/C, univariate
[8] = Pin1 rs2233679 T/T vs C/C, multivariable
[9] = Pin1 rs2233679 T/T vs C/C, univariate
[10] = RAD51 rs1801320 G/C vs G/G, multivariable
[11] = RAD51 rs1801320 G/C vs G/G, univariate
[12] = ATM rs609429 Any G vs C/C (Ref.), multivariable
[13] = ATM rs609429 Any G vs C/C (Ref.), univariate
[14] = ATM rs609429 G/C vs C/C (Ref.), multivariable
[15] = ATM rs609429 G/C vs C/C (Ref.), univariate
[16] = ATM rs609429 G/G vs C/C (Ref.), multivariable
[17] = ATM rs609429 G/G vs C/C (Ref.), univariate

Trifluridine/tipiracil [TAS-102]
OS HR (95% CI)† [1]: 0.62 (0.22, 1.71)
PFS HR (95% CI) † [1]: 0.68 (0.32, 1.41)
OS median, months (95% CI) (PCNA rs25406 G/G): 8.3 (2.7, 14.8+) months
PFS median, months (95% CI) (PCNA rs25406 G/G): 2.1 (1.6, 4.2) months
OS median, months (95% CI) (Pin1 rs2233678 G/C): 4.2 (2.7, 5.7+) months
PFS median, months (95% CI) (Pin1 rs2233678 G/C): 1.7 (1.6, 1.8+) months
OS HR (95% CI)‡ [2]: 7.21 (1.47, 35.33)
PFS HR (95% CI) ‡ [2]: 5.08 (1.11, 23.23)
OS HR (95% CI)† [3]: 4.23 (0.92, 19.42)
PFS HR (95% CI) † [3]: 3.66 (0.79, 16.99)
OS median, months (95% CI) (Pin1 rs2233678 G/G): 8.3 (6.3, 15.6+) months
PFS median, months (95% CI) (Pin1 rs2233678 G/G): 2.9 (2.1, 3.4) months
OS median, months (95% CI) (Pin1 rs2233679 Any T): 8.3 (6.3, 14.8+) months
PFS median, months (95% CI) (Pin1 rs2233679 Any T): 3.3 (1.8, 3.7) months
OS HR (95% CI)‡ [4]: 1.05 (0.43, 2.54)
PFS HR (95% CI) ‡ [4]: 1.01 (0.53, 1.94)
OS HR (95% CI)† [5]: 0.95 (0.40, 2.26)
PFS HR (95% CI) † [5]: 0.84 (0.45, 1.57)
OS median, months (95% CI) (Pin1 rs2233679 C/C): 7.2 (4.9, 15.6+) months
PFS median, months (95% CI) (Pin1 rs2233679 C/C): 2.3 (1.8, 3.4) months
OS median, months (95% CI) (Pin1 rs2233679 C/T): 8.3 (6.3, 12.4+) months
PFS median, months (95% CI) (Pin1 rs2233679 C/T): 2.9 (1.8, 3.7) months
OS HR (95% CI)‡ [6]: 1.04 (0.41, 2.64)
PFS HR (95% CI) ‡ [6]: 1.03 (0.52, 2.03)
OS HR (95% CI)† [7]: 1.05 (0.41, 2.65)
PFS HR (95% CI) † [7]: 0.90 (0.46, 1.75)
OS median, months (95% CI) (Pin1 rs2233679 T/T): 8.1 (3.1, 14.8+) months
PFS median, months (95% CI) (Pin1 rs2233679 T/T): 3.4 (1.6, 4.6) months
OS HR (95% CI)‡ [8]: 1.08 (0.24, 4.91)
PFS HR (95% CI) ‡ [8]: 0.95 (0.34, 2.67)
OS HR (95% CI)† [9]: 0.74 (0.20, 2.75)
PFS HR (95% CI) † [9]: 0.70 (0.28, 1.79)
OS median, months (95% CI) (RAD51 rs1801320 G/C): 6.3 (1.4, 8.4+) months
PFS median, months (95% CI) (RAD51 rs1801320 G/C): 3.2 (0.9, 3.4) months
OS HR (95% CI)‡ [10]: 2.28 (0.81, 6.48)
PFS HR (95% CI) ‡ [10]: 1.34 (0.60, 3.00)
OS HR (95% CI)† [11]: 2.19 (0.78, 6.14)
PFS HR (95% CI) † [11]: 1.57 (0.70, 3.50)
OS median, months (95% CI) (RAD51 rs1801320 G/G): 8.3 (5.7, 15.6+) months
PFS median, months (95% CI) (RAD51 rs1801320 G/G): 2.5 (2.0, 4.1) months
PFS (TAS-102 cohort n=52, combined hENT1 and OCT2/MATE1 variants: poor (11)): 47.0 days
PFS (combined hENT1 and OCT2/MATE1 analysis: overall (52)): 80 days
PFS (combined hENT1 and OCT2/MATE1 variants: excellent (21)): 104.0 days
PFS (combined hENT1 and OCT2/MATE1 variants: fair (16)): 62.0 days
PFS (combined hENT1 and OCT2/MATE1 variants: good (4)): 80 days
OS (median) (ATM rs609429 C/C (n=14)): 4.4 months
OS (median) (ATM rs609429 any G allele (G/C or G/G, n=38)): 8.7 months
PFS (median) (XRCC3 rs861539 G/A (n=17)): 3.8 months
PFS (median) (XRCC3 rs861539 G/G (n=35)): 2.3 months
Disease Control CR/PR/SD, patients n (%) (ATM rs609429 Any G): 10 (29%)
Median OS (95% CI) (ATM rs609429 Any G): 8.7 (6.3, 15.6+) months
Median PFS (95% CI) (ATM rs609429 Any G): 2.7 (2.1, 3.4) months
PD, patients n (%) (ATM rs609429 Any G): 25 (71%)
HR OS (95% CI) [12]: 0.24 (0.07, 0.80)
HR PFS (95% CI) [12]: 1.37 (0.57, 3.26)
HR OS (95% CI) [13]: 0.37 (0.14, 0.99)
HR PFS (95% CI) [13]: 1.53 (0.70, 3.35)
Disease Control CR/PR/SD, patients n (%) (ATM rs609429 C/C): 5 (45%)
Median OS (95% CI) (ATM rs609429 C/C): 4.4 (3.1, 8.3+) months
Median PFS (95% CI) (ATM rs609429 C/C): 3.3 (1.6, 6.0+) months
PD, patients n (%) (ATM rs609429 C/C): 6 (55%)
Disease Control CR/PR/SD, patients n (%) (ATM rs609429 G/C): 8 (32%)
Median OS (95% CI) (ATM rs609429 G/C): 12.4 (6.3, 15.6+) months
Median PFS (95% CI) (ATM rs609429 G/C): 2.9 (1.8, 3.4) months
PD, patients n (%) (ATM rs609429 G/C): 17 (68%)
HR OS (95% CI) [14]: 0.19 (0.05, 0.68)
HR PFS (95% CI) [14]: 1.30 (0.53, 3.19)
HR OS (95% CI) [15]: 0.32 (0.11, 0.91)
HR PFS (95% CI) [15]: 1.53 (0.68, 3.43)
Disease Control CR/PR/SD, patients n (%) (ATM rs609429 G/G): 2 (20%)
Median OS (95% CI) (ATM rs609429 G/G): 8.7 (1.2, 14.8+) months
Median PFS (95% CI) (ATM rs609429 G/G): 2.6 (1.2, 4.1) months
PD, patients n (%) (ATM rs609429 G/G): 8 (80%)
HR OS (95% CI) [16]: 0.39 (0.10, 1.54)
HR PFS (95% CI) [16]: 1.56 (0.56, 4.37)
HR OS (95% CI) [17]: 0.52 (0.16, 1.73)
HR PFS (95% CI) [17]: 1.55 (0.59, 4.04)
Disease Control Rate SD, patients n (%) (ATR rs2227928 A/A): 3 (20%)
PD, patients n (%) (ATR rs2227928 A/A): 12 (80%)
Disease Control Rate SD, patients n (%) (ATR rs2227928 A/G): 7 (32%)
PD, patients n (%) (ATR rs2227928 A/G): 15 (68%)
Disease Control Rate SD, patients n (%) (ATR rs2227928 Any G): 12 (39%)
PD, patients n (%) (ATR rs2227928 Any G): 19 (61%)
Disease Control Rate SD, patients n (%) (ATR rs2227928 G/G): 5 (56%)
PD, patients n (%) (ATR rs2227928 G/G): 4 (44%)
Disease Control Rate SD, patients n (%) (BRCA1 rs16941 Any C): 8 (30%)
PD, patients n (%) (BRCA1 rs16941 Any C): 19 (70%)
Disease Control Rate SD, patients n (%) (BRCA1 rs16941 C/C): 1 (20%)
PD, patients n (%) (BRCA1 rs16941 C/C): 4 (80%)
Disease Control Rate SD, patients n (%) (BRCA1 rs16941 T/C): 7 (32%)
